Measurements: paper PMC9136610 (Acta Pharmaceutica Sinica. B, 2022)

What was measured:
plasma protein = details: cited from earlier work; for Protein binding: ref Drugbank database (go.drugbank.com)
[1] = ref Drugbank database (go.drugbank.com); cited from earlier work
[2] = for AUC in tumor tissues, fold higher than in the normal fatpad: i.v. injection
in vivo = details: female, MMTV-PyMT (FVB/NJ background), mouse; for Kp: AUCtissue/AUCplasma
albumin = details: cited from earlier work

| SMILES | Protein binding (plasma protein) [%] | LogP [1] | LogS [1] | AUC (in vivo; po, 5 mg/kg) [ng·h/mL] | bioavailability (in vivo; po, 5 mg/kg) [%] | Kp (in vivo; po, Kpbone, bone) | Kp (in vivo; po, Kpfatpad, fatpad) | Kp (in vivo; po, Kptumor, tumor) | AUCtumor (oral 5 mg/kg, tumor) | pKa [1] | other results |
| --- | --- | --- | --- | --- | --- | --- | --- | --- | --- | --- | --- |
| CC/C(=C(\c1ccc(O)cc1)c1ccc(OCCN(C)C)cc1)c1ccccc1 [Afimoxifene, afimoxifene] | 99 | 5.44 | −5.1 | 114 | 32.4 | 5 | 10.9 | 25.3 | 2886.5 |  | tissue selectivity compared to tamoxifen and toremifene, in words ([2]; i.v. 2.5 mg/kg): higher lung but lower pancreas selectivity; exposure difference in the kidney, afimoxifene vs droloxifene ([2]; i.v. 2.5 mg/kg, AUC ratio): 4.8 fold; exposure difference in the liver, afimoxifene vs droloxifene ([2]; i.v. 2.5 mg/kg, AUC ratio): 6.8 fold; AUC in tumor tissues, fold higher than in the normal fatpad [2]: 2.2 fold |
| CC/C(=C(/c1ccc(OCCN(C)C)cc1)c1cccc(O)c1)c1ccccc1 [Droloxifene] |  | 5.43 | −5.1 | 127 | 45.3 | 7.7 | 9.5 | 25.6 | 3238.8 | 8.49 | tissue selectivity compared to tamoxifen and toremifene, in words ([2]; i.v. 2.5 mg/kg): higher lung but lower pancreas selectivity; AUC in tumor tissues, fold higher than in the normal fatpad [2]: 3.1 fold |
| Cc1cc(-c2ccc(/N=N/c3ccc4c(S(=O)(=O)O)cc(S(=O)(=O)O)c(N)c4c3O)c(C)c2)ccc1/N=N/c1ccc2c(S(=O)(=O)O)cc(S(=O)(=O)O)c(N)c2c1O [Evan blue] |  |  |  |  |  |  |  |  |  |  | plasma protein binding level (plasma protein): 68% |
| Oc1ccc2c(c1)CC[C@H](c1ccccc1)[C@@H]2c1ccc(OCCN2CCCC2)cc1 [Lasofoxifene, lasofoxifene] | 99 | 6.36 | −6 | 75.4 |  | 3.5 | 5.7 | 13.2 | 996 | 8.98 | bioavailability (in vivo): 26.9% |
| COc1ccc2c(c1)CCC(c1ccccc1)=C2c1ccc(OCCN2CCCC2)cc1 [Nafoxidine, nafoxidine] |  | 6.36 | −5.91 | 969 |  | 1.4 | 4.5 | 6.3 | 6118.7 | 8.95 | tissue selectivity compared to lasofoxifene, in words ([2]; after i.v and p.o. administration): higher selectivity in stomach, liver, fat, fatpad, spleen, kidney, but lower selectivity in heart, tumor and pancreas; exposure in the fat, fold higher than lasofoxifene ([2]; i.v. 2.5 mg/kg): 8 fold; exposure in the spleen, fold higher than lasofoxifene ([2]; i.v. 2.5 mg/kg): 6 fold; bioavailability (in vivo): 83.4%; oral bioavailability, fold higher than lasofoxifene (vs lasofoxifene): 3 fold |
| O=C(c1ccc(OCCN2CCCCC2)cc1)c1c(-c2ccc(O)cc2)sc2cc(O)ccc12 [Raloxifene, raloxifene] |  |  |  | 114 |  |  |  |  | 929.4 |  |  |
| CC/C(=C(\c1ccccc1)c1ccc(OCCN(C)C)cc1)c1ccccc1 [Tamoxifen] | 98 |  |  | 102 | 39.4 |  |  |  | 3621.3 |  | exposure difference in the fat, intestine and skin, tamoxifen vs toremifene ([2]; i.v. 2.5 mg/kg, AUC ratio): 2 fold |
| CN(C)CCOc1ccc(/C(=C(/CCCl)c2ccccc2)c2ccccc2)cc1 [Toremifene, toremifene] | 92 | 5.65 | −6 | 64.9 | 18.5 | 5.1 | 20.9 | 21.5 | 1393 | 8.76 | tumor drug concentration, fold higher than raloxifene (oral 5 mg/kg, tumor, vs raloxifene): 1.5 fold; drug exposure in the lung, fold increase to tamoxifen (20 mg QD) (toremifene 60 mg QD (3-fold AUC) vs tamoxifen 20 mg QD): 2 fold |
| COc1cccc2c1C(=O)c1c(O)c3c(c(O)c1C2=O)C[C@@](O)(C(=O)CO)C[C@@H]3O[C@H]1C[C@H](N)[C@H](O)[C@H](C)O1 [doxorubicin] |  |  |  |  |  |  |  |  |  |  | binding affinity to albumin (albumin): 7500 mol/L |
